From ChEMBL document CHEMBL4651402, “Screening of ~5500 FDA-approved drugs and clinical candidates for anti-SARS-CoV-2 activity” (2021)
pIC50: −log10 of the molar value.

Test system: SARS-CoV-2
Experiment: microbe, parasite or virus in culture
Conditions: Severe acute respiratory syndrome coronavirus 2, Vero C1008, 48 h; for IC50: read-out: pIC50 (converted)

| SMILES | pIC50 | IC50 [µM] |
| --- | --- | --- |
| COc1cc2c(cc1OC)C1Cc3ccc(OC)c(OC)c3CN1CC2 (stereo not drawn) | < 4.70 | > 20 |
| CCC(C)n1ncn(-c2ccc(N3CCN(c4ccc(OC[C@@H]5CO[C@@](Cn6cncn6)(c6ccc(Cl)cc6Cl)O5)cc4)CC3)cc2)c1=O (stereo partly drawn) | < 4.70 | > 20 |
| Cc1nc2ccccn2c(=O)c1CCN1CCc2oc3ccccc3c2C1 [LUSAPERIDONE] | < 4.70 | > 20 |
| CC1CN(C)CC2Cc3c(ccc4ccccc34)OC12O (stereo not drawn) [NARANOL] | < 4.70 | > 20 |
| CC(N/C(=N\C#N)Nc1ccncc1)C(C)(C)C (stereo not drawn) [PINACIDIL ANHYDROUS] | < 4.70 | > 20 |
| COc1ccc2c(c1)[C@H]1C[C@@]1(C(=O)N1C3CCC1CN(C)C3)Cn1c-2c(C2CCCCC2)c2ccc(C(=O)NS(=O)(=O)N(C)C)cc21 | < 4.70 | > 20 |
| O=C(O)c1cc(O)c2cccc(O)c2n1 [XANTHURENATE] | < 4.70 | > 20 |
| c1ccc([C@H]2CN3CCSC3=N2)cc1 [LEVAMISOLE] | < 4.70 | > 20 |
| O=C(NCc1ccncc1)C12CC3CC(C1)CC(c1ccc(Cl)cc1)(C3)C2 [ABC-294640] | < 4.70 | > 20 |
| O=C(CCCN1CCC(C(=O)c2ccc(Cl)cc2)CC1)c1ccc(F)cc1 [CLOROPERONE] | < 4.70 | > 20 |
| CCc1c(O)cc(O)c(C(=O)c2ccc(OCCN3CCOCC3)c(OC)c2)c1CC(=O)N(CCOC)CCOC [KW-2478 FREE BASE] | < 4.70 | > 20 |
| CC[C@H](OC(C)=O)C(C[C@@H](C)N(C)C)(c1ccccc1)c1ccccc1 [BETACETYLMETHADOL] | < 4.70 | > 20 |
| CS(=O)(=O)OCCCCOS(C)(=O)=O [BUSULFAN] | < 4.70 | > 20 |
| Cc1ccc2c(c1)c1c(n2CCc2ccc(C)nc2)CCN(C)C1 [LATREPIRDINE] | < 4.70 | > 20 |
| CN1CC(O)C2=CC(=O)C(=O)C=C21 (stereo not drawn) | < 4.70 | > 20 |
| O=C(O)c1cn(C2CC2)c2cc(N3CCC(O)(COc4ccc(N5C[C@H](CO)OC5=O)cc4F)CC3)c(F)cc2c1=O [CADAZOLID] | < 4.70 | > 20 |
| CN(C/C=C/c1ccccc1)Cc1cccc2ccccc12 [NAFTIFINE] | < 4.70 | > 20 |
| CC(C)n1c(/C=C/[C@@H](O)C[C@@H](O)CC(=O)O)c(-c2ccc(F)cc2)c2ccccc21.CC(C)n1c(/C=C/[C@H](O)C[C@H](O)CC(=O)O)c(-c2ccc(F)cc2)c2ccccc21 | < 4.70 | > 20 |
| CCN(CC)C(C)C(=O)c1ccccc1 (stereo not drawn) [DIETHYLPROPION] | < 4.70 | > 20 |
| Cc1ncc(CNC(=O)N(CCCl)N=O)c(N)n1 [NIMUSTINE] | < 4.70 | > 20 |

| SMILES | pIC50 | IC50 [µM] |
| --- | --- | --- |
| C=CCC(N)c1ccccc1-c1noc2ccccc12 (stereo not drawn) | < 4.70 | > 20 |
| CN1[C@@H]2CC[C@H]1CC(O)C2 (stereo partly drawn) | < 4.70 | > 20 |
| COc1ccc(C2CNC(=O)NC2)cc1O[C@@H]1C[C@H]2CC[C@@H]1C2 | < 4.70 | > 20 |
| O=C(c1ccc(F)cc1)C1CCN(CCCCn2c(=O)[nH]c3ccccc3c2=O)CC1 [BUTANSERIN] | < 4.70 | > 20 |
| O=C[C@@H]1CCCN1C(=O)CCC(=O)NCc1ccc(Cl)cc1 | < 4.70 | > 20 |
| CC(=O)N[C@@H]1[C@@H](O[C@H](C)C(=O)O)[C@H](O)[C@@H](CO)O[C@@H]1O | < 4.70 | > 20 |
| C=C(NC(=O)C(=C)NC(=O)c1csc(C2=N[C@H]3c4csc(n4)[C@H]4NC(=O)c5csc(n5)[C@H]([C@@](C)(O)[C@@H](C)O)NC(=O)[C@H]5CSC(=N5)/C(=C\C)NC(=O)[C@H]([C@@H](C)O)NC(=O)c5csc(n5)[C@]3(CC2)NC(=O)[C@H](C)NC(=O)C(=C)NC(=O)[C@H](C)NC(=O)[C@H](C(C)CC)N[C@@H]2C=Cc3c([C@H](C)O)cc(nc3[C@H]2O)C(=O)O[C@@H]4C)n1)C(N)=O (stereo partly drawn) | < 4.70 | > 20 |
| CN1C(CSCC(F)(F)F)Nc2cc(Cl)c(S(N)(=O)=O)cc2S1(=O)=O (stereo not drawn) [POLYTHIAZIDE] | < 4.70 | > 20 |
| CN1CCc2cccc3c2[C@H]1Cc1ccc(O)c(O)c1-3 [APOMORPHINE] | < 4.70 | > 20 |
| CCCCCCC(=O)OCCN1CCN(CCCN2c3ccccc3Sc3ccc(C(F)(F)F)cc32)CC1 [FLUPHENAZINE ENANTHATE] | < 4.70 | > 20 |
| Cc1cc(O)cc(C)c1Cl [CHLOROXYLENOL] | < 4.70 | > 20 |
| CN(C)C(=O)Oc1ccc[n+](C)c1 [PYRIDOSTIGMINE] | < 4.70 | > 20 |
| CO[C@H]1C(O)C[C@H](O[C@H]2C(O)C[C@H](O[C@H]3C(O)C[C@H](OC4CC[C@@]5(C)C(CCC6C5CC(O)[C@]5(C)[C@@H](C7=CC(=O)OC7)CCC65O)C4)OC3C)OC2C)OC1C (stereo partly drawn) | < 4.70 | > 20 |
| CCCCc1ccc2[nH]c(NC(=O)OC)nc2c1 [PARBENDAZOLE] | < 4.70 | > 20 |
| CC(C)(C)c1ccc(OC(=O)[C@H]2CC[C@H](CNC(=N)N)CC2)cc1 [BATEBULAST] | < 4.70 | > 20 |
| CC(C)(C)c1cc(C(=O)c2cccs2)cc(C(C)(C)C)c1O [PRIFELONE] | < 4.70 | > 20 |
| OCCN1CCN(CCCN2c3ccccc3Sc3ccc(Cl)cc32)CC1 [PERPHENAZINE] | < 4.70 | > 20 |
| C[C@@H](CN1CCOCC1)C(C(=O)N1CCCC1)(c1ccccc1)c1ccccc1 [LEVOMORAMIDE] | < 4.70 | > 20 |
| N#CC(c1ccc(Cl)cc1)c1c(Cl)cc(-n2ncc(=O)[nH]c2=O)cc1Cl (stereo not drawn) [DICLAZURIL] | < 4.70 | > 20 |
| CC1(O)/C=C\C=C(\CO)C2CC(C)(C)C2(O)CC1 (stereo not drawn) | < 4.70 | > 20 |

| SMILES | pIC50 | IC50 [µM] |
| --- | --- | --- |
| C1CN1c1nc(N2CC2)nc(N2CC2)n1 | < 4.70 | > 20 |
| COc1ccc2c(c1OC)CN1CCc3cc4c(cc3C1C2)OCO4 (stereo not drawn) [TETRAHYDROBERBERINE] | < 4.70 | > 20 |
| Nc1ccc(S(=O)(=O)Nc2ccc(Cl)nn2)cc1 [SULFACHLORPYRIDAZINE] | < 4.70 | > 20 |
| CC(C)=CCC/C(C)=C/CC/C(C)=C/CC/C(C)=C/CC1=C(C)C(=O)c2ccccc2C1=O [MENATETRENONE] | < 4.70 | > 20 |
| COC(=O)C1=C(C)NC(C)=C(C(=O)OCCN2CCN(C(c3ccccc3)c3ccccc3)CC2)C1c1cccc([N+](=O)[O-])c1 (stereo not drawn) [MANIDIPINE 6300] | < 4.70 | > 20 |
| CC[C@@H](C)n1ncn(-c2ccc(N3CCN(c4ccc(OC[C@H]5CO[C@@](Cn6cncn6)(c6ccc(F)cc6F)O5)cc4)CC3)cc2)c1=O | < 4.70 | > 20 |
| O=C(C1CCCCC1)N1CC(=O)N2CCc3ccccc3C2C1 (stereo not drawn) [PRAZIQUANTEL] | < 4.30 | > 50.1 |
| N=C(N)N1CCCC(CNC(=O)CC(NS(=O)(=O)c2ccc3ccccc3c2)C(=O)N(CC(=O)O)C2CC2)C1 (stereo not drawn) | < 4.70 | > 20 |
| C=C1CC[C@H](O)C/C1=C/C=C1\CCCC2(C)C1CCC2C(C)/C=C/C(C)C(C)C (stereo partly drawn) | < 4.70 | > 20 |
| C#C[C@]1(O)C=C[C@H]2[C@@H]3CCC4=CC(=O)CC[C@@H]4[C@H]3CC[C@@]21CC [GESTODENE] | < 4.70 | > 20 |
| CC(N)C(=O)OC(C)(C)Cc1ccc(Cl)cc1 (stereo not drawn) [ALAPROCLATE] | < 4.70 | > 20 |
| COc1cccc2c1C(=O)c1c(O)c3c(c(O)c1C2=O)C[C@@](O)(C(C)=O)C[C@@H]3O[C@H]1C[C@H](N)[C@H](O)[C@H](C)O1 [DAUNORUBICIN] | < 4.70 | > 20 |
| Cc1cc(Nc2ncnc3ccc(-c4ccc(CNCCS(C)(=O)=O)o4)cc23)ccc1Oc1ccn2ncnc2c1 | < 4.70 | > 20 |
| CC(=O)NC(=O)c1ccccc1O [SALACETAMIDE] | < 4.70 | > 20 |
| N[C@@H](CS)C(=O)O [CYSTEINE] | < 4.70 | > 20 |
| COc1ccc(-c2ccc(=N)n(CCCC(=O)O)n2)cc1 [GABAZINE] | < 4.70 | > 20 |
| NC(Cc1ccc(O)cc1)C(=O)O (stereo not drawn) | < 4.70 | > 20 |
| c1ccc(OCc2ccc(CCCN3CCOCC3)cc2)cc1 [FOMOCAINE] | < 4.70 | > 20 |
| CC1(C)CNc2cc(NC(=O)c3cccnc3NCc3ccncc3)ccc21 [MOTESANIB] | < 4.70 | > 20 |
